Measured values: patent US20230322785A1, “ADENOSINE A2A AND A2B RECEPTOR DUAL ANTAGONISTS FOR IMMUNO-ONCOLOGY” (Merck Sharp & Dohme LLC, priority 2020, published 2023)

How the values were obtained:
[1] = biological target: T1, human A2A adenosine receptor (Homo sapiens, UniProt P29274); test: A2A binding affinity, Method (A): radioligand filtration binding with [3H]SCH58261; conditions: membranes of HEK293 or CHO cells expressing the human receptor
T1 construct: expressed in transfected cells; host or cells: HEK293 or CHO cells
Description: (§1) Method (A) describes the procedure used to measure A2A binding affinity using radioligand binding. Method (B) describes the procedure used to measure A2A binding affinity using SPA technology. The method used to measure A2B binding affinity is also described below. The method used to determine the A2A IC50 value reported for each compound in the table is indicated next to the reported value. The A2B IC50 value measured using the A2B binding affinity assay is shown in the table next to the compound under the corresponding A2A value.
The A2A receptor affinity binding assay measured the amount of binding of a tritiated ligand with high affinity for the A2A adenosine receptor to membranes made from HEK293 or CHO cells recombinantly expressing the human A2A adenosine receptor, in the presence of varying concentrations of a compound of the invention. The data were generated using either filtration binding or a homogenous scintillation proximity assay (SPA).
Method (A): Measurement of A2A Binding Affinity Using Radioligand Binding
148 µL (5 µg/mL) membranes (Perkin Elmer, Cat. No. RBHA2aM400UA) and 2 µL compounds of the invention to be tested (test compound) were transferred to individual wells of a 96-well polypropylene assay plate and incubated for 15 to 30 min at room temperature. [^3H] SCH58261 ((7-(2-phenylethyl)-5-amino-2-(2-furyl)-pyrazolo-[4,3-e]-1,2,4-triazolo[1,5-c]pyrimidine)) was diluted in assay buffer (50 mM Tris pH 7.4, 10 mM MgCl2, 0.005% Tween20) to a concentration of 4 nM and 50 µL transferred to each well of the assay plate. To define total and non-specific binding, wells containing 1% DMSO and 1 µM ZM241385 (Tocris Bioscience, Cat. No. 1036) respectively, were also included. The assay plate was incubated at room temperature for 60 min with agitation. Using a FilterMate Harvester® (Perkin Elmer), the contents of the assay plate were filtered through a UniFilter-96® PEI coated plate (Perkin Elmer Cat. No. 6005274 or 6005277). Filtering was achieved by aspirating the contents of the assay plate for 5 sec, then washing and aspirating the contents three times with ice-cooled wash buffer (50 mM Tris-HCl pH 7.4, 150 mM NaCl) and allowing the vacuum manifold to dry the plate for 30 sec. The filter plate was incubated for at least 1 h at 55° C. and allowed to dry. The bottom of the filter plate was sealed with backing tape. 40 µL Ultima Gold™ (Perkin Elmer, Cat. No. 6013329) was added to each well of the filter plate and the top of the plate was sealed with TopSeal-A PLUS® clear plate seal (Perkin Elmer, Cat. No. 6050185). The plate was incubated for at least 20 min, and then the amount of radioactivity remaining in each well was determined using a TopCount® (Perkin Elmer) scintillation counter. After normalization to total and non-specific binding, the percent effect at each compound concentration was calculated. The plot of percent effect versus the log of compound concentration was analyzed electronically using a 4-parameter logistic fit based on the Levenberg-Marquardt algorithm to generate IC50 values.

[2] = biological target: T2, human A2B adenosine receptor (Homo sapiens, UniProt P29275); test: A2B binding affinity, radioligand filtration binding assay; conditions: value given with mark (A); membranes of HEK293 cells expressing human A2B
T2 construct: purchased Perkin Elmer ES-013-C; host or cells: HEK293 cells
T2 sequence (P29275 1-332): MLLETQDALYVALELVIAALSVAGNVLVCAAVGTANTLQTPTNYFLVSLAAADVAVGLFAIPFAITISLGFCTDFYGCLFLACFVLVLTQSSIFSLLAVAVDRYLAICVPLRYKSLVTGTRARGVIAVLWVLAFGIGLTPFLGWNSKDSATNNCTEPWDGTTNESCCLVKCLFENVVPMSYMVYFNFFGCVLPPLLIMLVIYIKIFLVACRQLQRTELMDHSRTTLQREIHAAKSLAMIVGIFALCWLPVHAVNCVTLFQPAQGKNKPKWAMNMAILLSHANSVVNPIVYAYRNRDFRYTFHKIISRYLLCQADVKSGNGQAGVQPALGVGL
Description: as §1
Measurement of A2B Binding Affinity
The reported affinity of the compounds of the invention for the human A2B adenosine receptor was determined experimentally using a radioligand filtration binding assay. This assay measures the amount of binding of a tritiated proprietary A2B receptor antagonist, in the presence and absence of a compound of the invention, to membranes made from HEK293 cells recombinantly expressing the human A2B adenosine receptor (Perkin Elmer, Cat. No. ES-013-C). […] 148 µL (135 µg/mL) membranes and 2 µL test compounds were transferred to individual wells of a 96-well polypropylene assay plate and incubated for 15 to 30 min at room temperature with agitation. Tritiated radioligand was diluted to a concentration of 14 nM in assay buffer (phosphate buffered saline without Magnesium and Calcium, pH 7.4; GE Healthcare Life Sciences, Cat. No. SH30256.01) and then 50 µL of the solution were transferred to each well of the assay plate. To define total and non-specific binding, wells containing 1% DMSO and 20 µM N-ethylcarboxamidoadenosine (Tocris Bioscience, Cat. No. 1691) respectively, were also included. The wells of the assay plate were incubated at room temperature for 60 min with agitation, then filtered using a FilterMate Harvester® (Perkin Elmer) or similar equipment through a UniFilter-96® PEI coated plate (Perkin Elmer Cat. No. 6005274 or 6005277). Filtering was achieved by aspirating the contents of the assay plate for 5 sec, then washing and aspirating the contents three times with ice-cooled wash buffer (assay buffer supplemented with 0.0025% Brij58) and allowing the vacuum manifold to dry the plate for 30 sec. The filter plate was incubated for at least 1 h at 55° C. and allowed to dry. The bottom of the filter plate was then sealed with backing tape. 40 µL Ultima Gold™ (Perkin Elmer, Cat. No. 6013329) was added to each well of the filter plate and the top of the plate was sealed with TopSeal-A PLUS® clear plate seal (Perkin Elmer, Cat. No. 6050185). The plates were then incubated for at least 20 min, and then the amount of radioactivity remaining in each well was determined using a TopCount® (Perkin Elmer) scintillation counter. After normalization to total and non-specific binding, the percent effect at each compound concentration was calculated. The plot of percent effect versus the log of compound concentration was analyzed electronically using a 4-parameter logistic fit based on the Levenberg-Marquardt algorithm to generate IC50 values.

T1 sequence (P29274 whole entry): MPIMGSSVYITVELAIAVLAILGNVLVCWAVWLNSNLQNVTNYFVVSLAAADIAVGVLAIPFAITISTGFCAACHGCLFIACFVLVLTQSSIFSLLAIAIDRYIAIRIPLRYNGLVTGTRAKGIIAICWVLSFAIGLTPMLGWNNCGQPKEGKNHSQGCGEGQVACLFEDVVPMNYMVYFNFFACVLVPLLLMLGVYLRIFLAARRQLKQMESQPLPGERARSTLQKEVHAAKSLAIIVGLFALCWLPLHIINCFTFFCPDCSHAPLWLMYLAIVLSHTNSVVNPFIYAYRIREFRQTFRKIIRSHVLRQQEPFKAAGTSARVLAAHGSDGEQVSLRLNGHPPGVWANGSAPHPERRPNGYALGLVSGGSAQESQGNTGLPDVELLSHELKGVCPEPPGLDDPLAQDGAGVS

| SMILES | IC50 [1] | IC50 [2] |
| --- | --- | --- |
| COc1cc(F)cc2c1nc(N)n1nc(CNCc3ccc(C(C)(O)C(F)(F)F)cc3)nc21 (single isomer, unassigned) [Example 11.8A, (S or R)-2-(4-((((5-amino-9-fluoro-7-methoxy-[1,2,4]triazolo[1,5-c]quinazolin-2-yl)methyl)amino)methyl)phenyl)-1,1,1-trifluoropropan-2-ol] | 0.8 nM | 11.3 nM |
| COc1cc(F)cc2c1nc(N)n1nc(CNCc3ccc(C(O)(C(F)(F)F)C(F)(F)F)cc3)nc21 [Example 11.5, 2-(4-((((5-amino-9-fluoro-7-methoxy-[1,2,4]triazolo[1,5-c]quinazolin-2-yl)methyl)amino)methyl)phenyl)-1,1,1,3,3,3-hexafluoropropan-2-ol] | 0.2 nM | 1 nM |
